From article PMC4522657, “Identification of a DYRK1A Inhibitor that Induces Degradation of the Target Kinase using Co-chaperone CDC37 fused with Luciferase nanoKAZ” (Scientific Reports, 2015)

Columns and labels:
[1] = target: T1, HER2 (Homo sapiens, UniProt P04626); test: Kinase panel, CaNDY 1 µM; format: biochemical; settings: CaNDY 1 µM relative to DMSO
T1 construct: purchased Carna Biosciences

[2] = target: T2, KDR (Homo sapiens, UniProt P35968); test: Kinase panel, CaNDY 1 µM; format: biochemical; settings: CaNDY 1 µM relative to DMSO
T2 construct: purchased Carna Biosciences

[3] = target: T3, KIT(V560G) (Homo sapiens, UniProt P10721, V560G); test: Kinase panel, CaNDY 1 µM; format: biochemical; settings: CaNDY 1 µM relative to DMSO
T3 construct: purchased Carna Biosciences

[4] = target: T4, CaMK2γ (Homo sapiens, UniProt Q13555); test: Kinase panel, CaNDY 1 µM; format: biochemical; settings: CaNDY 1 µM relative to DMSO
T4 construct: purchased Carna Biosciences
T4 sequence (Q13555 whole entry): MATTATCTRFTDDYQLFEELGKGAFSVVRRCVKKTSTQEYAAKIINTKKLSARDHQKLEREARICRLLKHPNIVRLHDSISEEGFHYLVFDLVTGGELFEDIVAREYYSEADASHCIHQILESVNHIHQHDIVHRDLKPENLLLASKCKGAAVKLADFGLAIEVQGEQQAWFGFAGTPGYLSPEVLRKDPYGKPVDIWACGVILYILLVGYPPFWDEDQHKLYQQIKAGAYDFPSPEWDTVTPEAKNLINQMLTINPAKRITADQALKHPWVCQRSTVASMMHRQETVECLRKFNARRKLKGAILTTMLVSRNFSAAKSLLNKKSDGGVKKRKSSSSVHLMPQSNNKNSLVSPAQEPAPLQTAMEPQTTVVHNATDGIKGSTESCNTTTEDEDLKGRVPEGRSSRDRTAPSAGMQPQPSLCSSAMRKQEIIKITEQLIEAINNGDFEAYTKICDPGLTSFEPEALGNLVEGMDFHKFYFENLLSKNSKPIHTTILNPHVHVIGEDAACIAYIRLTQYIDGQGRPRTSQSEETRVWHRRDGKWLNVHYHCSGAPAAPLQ

[5] = target: T5, CK1γ2 (Homo sapiens, UniProt P78368); test: Kinase panel, CaNDY 1 µM; format: biochemical; settings: CaNDY 1 µM relative to DMSO
T5 construct: purchased Carna Biosciences

[6] = target: T6, IRAK4 (Homo sapiens, UniProt Q9NWZ3); test: Kinase panel, CaNDY 1 µM; format: biochemical; settings: CaNDY 1 µM relative to DMSO
T6 construct: purchased Carna Biosciences
T6 sequence (Q9NWZ3 whole entry): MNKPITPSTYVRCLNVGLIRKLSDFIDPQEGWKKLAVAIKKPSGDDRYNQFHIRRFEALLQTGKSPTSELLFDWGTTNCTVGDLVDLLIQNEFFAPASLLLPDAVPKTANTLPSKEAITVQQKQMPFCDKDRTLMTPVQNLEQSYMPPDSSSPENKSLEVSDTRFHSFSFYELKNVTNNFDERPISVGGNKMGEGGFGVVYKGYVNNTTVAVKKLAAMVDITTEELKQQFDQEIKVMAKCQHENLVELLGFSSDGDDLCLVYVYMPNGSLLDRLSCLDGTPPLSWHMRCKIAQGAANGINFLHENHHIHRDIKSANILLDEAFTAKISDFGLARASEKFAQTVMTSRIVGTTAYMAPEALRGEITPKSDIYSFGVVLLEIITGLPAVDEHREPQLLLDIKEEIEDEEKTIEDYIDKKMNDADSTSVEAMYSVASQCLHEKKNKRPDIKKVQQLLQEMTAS

[7] = target: T7, MSK1 (Homo sapiens, UniProt O75582); test: Kinase panel, CaNDY 1 µM; format: biochemical; settings: CaNDY 1 µM relative to DMSO
T7 construct: purchased Carna Biosciences

[8] = target: T8, PAK1 (Homo sapiens, UniProt Q13153); test: Kinase panel, CaNDY 1 µM; format: biochemical; settings: CaNDY 1 µM relative to DMSO
T8 construct: purchased Carna Biosciences
T8 sequence (Q13153 whole entry): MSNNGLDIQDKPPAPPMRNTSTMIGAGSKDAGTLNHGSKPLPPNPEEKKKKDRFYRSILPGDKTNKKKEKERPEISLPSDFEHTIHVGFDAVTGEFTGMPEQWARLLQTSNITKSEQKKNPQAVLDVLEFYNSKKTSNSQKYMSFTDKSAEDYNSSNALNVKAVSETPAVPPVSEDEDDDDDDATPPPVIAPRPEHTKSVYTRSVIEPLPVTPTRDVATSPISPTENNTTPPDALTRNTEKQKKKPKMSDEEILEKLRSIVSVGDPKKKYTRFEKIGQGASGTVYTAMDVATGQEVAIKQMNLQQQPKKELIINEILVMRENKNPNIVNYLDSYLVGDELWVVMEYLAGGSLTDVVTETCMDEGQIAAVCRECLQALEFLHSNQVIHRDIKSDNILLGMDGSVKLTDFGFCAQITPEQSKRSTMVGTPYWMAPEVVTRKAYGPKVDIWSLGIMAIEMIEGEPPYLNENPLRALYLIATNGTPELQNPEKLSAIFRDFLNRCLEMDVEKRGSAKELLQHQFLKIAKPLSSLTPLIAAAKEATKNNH

[9] = target: T9, PBK (Homo sapiens, UniProt Q96KB5); test: Kinase panel, CaNDY 1 µM; format: biochemical; settings: CaNDY 1 µM relative to DMSO
T9 construct: purchased Carna Biosciences
T9 sequence (Q96KB5 whole entry): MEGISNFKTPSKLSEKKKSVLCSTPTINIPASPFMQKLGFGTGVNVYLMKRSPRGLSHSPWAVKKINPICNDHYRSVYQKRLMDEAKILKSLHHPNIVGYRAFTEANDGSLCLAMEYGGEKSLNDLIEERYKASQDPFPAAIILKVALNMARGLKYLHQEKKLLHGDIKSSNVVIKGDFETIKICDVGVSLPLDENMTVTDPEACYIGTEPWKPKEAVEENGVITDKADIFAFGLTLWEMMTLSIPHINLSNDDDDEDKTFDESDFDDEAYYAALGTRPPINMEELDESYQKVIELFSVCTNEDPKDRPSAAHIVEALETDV

[10] = target: T10, PHKG1 (Homo sapiens, UniProt Q16816); test: Kinase panel, CaNDY 1 µM; format: biochemical; settings: CaNDY 1 µM relative to DMSO
T10 construct: purchased Carna Biosciences

[11] = target: T11, RSK4 (Homo sapiens, UniProt Q9UK32); test: Kinase panel, CaNDY 1 µM; format: biochemical; settings: CaNDY 1 µM relative to DMSO
T11 construct: purchased Carna Biosciences
T11 sequence (Q9UK32 whole entry): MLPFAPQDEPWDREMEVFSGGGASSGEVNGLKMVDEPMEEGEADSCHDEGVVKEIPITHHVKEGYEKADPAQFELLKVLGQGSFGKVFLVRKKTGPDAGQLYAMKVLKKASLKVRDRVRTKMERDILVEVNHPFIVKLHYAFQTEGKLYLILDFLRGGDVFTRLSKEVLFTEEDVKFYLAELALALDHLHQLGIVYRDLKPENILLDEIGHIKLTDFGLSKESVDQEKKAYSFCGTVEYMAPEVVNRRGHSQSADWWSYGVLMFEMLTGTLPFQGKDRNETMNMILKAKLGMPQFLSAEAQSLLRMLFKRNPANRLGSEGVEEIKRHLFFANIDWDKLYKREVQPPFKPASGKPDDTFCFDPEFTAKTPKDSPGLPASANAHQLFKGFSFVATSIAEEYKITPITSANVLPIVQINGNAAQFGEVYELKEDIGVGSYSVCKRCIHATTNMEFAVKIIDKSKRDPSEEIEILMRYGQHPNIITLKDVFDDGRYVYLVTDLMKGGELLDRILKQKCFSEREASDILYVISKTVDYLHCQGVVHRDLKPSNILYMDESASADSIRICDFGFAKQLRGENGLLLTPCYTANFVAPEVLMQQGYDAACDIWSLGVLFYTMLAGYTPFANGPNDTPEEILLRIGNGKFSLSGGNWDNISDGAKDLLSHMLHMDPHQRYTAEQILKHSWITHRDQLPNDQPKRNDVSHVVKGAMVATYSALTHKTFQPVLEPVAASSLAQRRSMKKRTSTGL

[12] = target: T12, PIK3CA/PIK3R1 (Homo sapiens, UniProt P42336); test: Kinase panel, CaNDY 1 µM; format: biochemical; settings: CaNDY 1 µM relative to DMSO
T12 construct: purchased Carna Biosciences
T12 sequence (P42336 whole entry): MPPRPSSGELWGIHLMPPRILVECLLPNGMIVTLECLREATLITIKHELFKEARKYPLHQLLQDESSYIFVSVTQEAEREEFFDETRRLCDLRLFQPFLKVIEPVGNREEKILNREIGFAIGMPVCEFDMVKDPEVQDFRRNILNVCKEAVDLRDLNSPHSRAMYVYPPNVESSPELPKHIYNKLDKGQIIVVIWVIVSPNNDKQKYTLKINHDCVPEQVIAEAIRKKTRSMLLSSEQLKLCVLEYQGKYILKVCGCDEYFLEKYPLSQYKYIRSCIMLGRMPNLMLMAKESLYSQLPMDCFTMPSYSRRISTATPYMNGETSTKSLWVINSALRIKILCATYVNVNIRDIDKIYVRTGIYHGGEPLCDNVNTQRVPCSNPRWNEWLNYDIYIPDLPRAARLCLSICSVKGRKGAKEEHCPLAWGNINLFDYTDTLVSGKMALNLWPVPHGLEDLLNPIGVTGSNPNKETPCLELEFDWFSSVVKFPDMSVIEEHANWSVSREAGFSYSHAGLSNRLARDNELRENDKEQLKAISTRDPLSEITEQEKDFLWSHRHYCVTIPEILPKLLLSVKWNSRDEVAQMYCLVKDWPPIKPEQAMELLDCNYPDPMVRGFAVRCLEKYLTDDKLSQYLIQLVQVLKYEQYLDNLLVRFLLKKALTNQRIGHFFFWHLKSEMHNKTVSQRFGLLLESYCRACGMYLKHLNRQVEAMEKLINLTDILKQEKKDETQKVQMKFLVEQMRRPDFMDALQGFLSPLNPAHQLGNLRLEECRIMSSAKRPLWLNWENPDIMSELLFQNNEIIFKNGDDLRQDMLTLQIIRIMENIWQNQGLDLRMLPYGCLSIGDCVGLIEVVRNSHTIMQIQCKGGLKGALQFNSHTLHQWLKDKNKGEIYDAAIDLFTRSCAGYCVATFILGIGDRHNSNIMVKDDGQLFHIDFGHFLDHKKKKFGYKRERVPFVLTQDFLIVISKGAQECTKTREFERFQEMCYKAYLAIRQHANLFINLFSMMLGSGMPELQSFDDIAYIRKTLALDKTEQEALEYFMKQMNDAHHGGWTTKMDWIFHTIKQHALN
T12 sequence (P27986 whole entry partner): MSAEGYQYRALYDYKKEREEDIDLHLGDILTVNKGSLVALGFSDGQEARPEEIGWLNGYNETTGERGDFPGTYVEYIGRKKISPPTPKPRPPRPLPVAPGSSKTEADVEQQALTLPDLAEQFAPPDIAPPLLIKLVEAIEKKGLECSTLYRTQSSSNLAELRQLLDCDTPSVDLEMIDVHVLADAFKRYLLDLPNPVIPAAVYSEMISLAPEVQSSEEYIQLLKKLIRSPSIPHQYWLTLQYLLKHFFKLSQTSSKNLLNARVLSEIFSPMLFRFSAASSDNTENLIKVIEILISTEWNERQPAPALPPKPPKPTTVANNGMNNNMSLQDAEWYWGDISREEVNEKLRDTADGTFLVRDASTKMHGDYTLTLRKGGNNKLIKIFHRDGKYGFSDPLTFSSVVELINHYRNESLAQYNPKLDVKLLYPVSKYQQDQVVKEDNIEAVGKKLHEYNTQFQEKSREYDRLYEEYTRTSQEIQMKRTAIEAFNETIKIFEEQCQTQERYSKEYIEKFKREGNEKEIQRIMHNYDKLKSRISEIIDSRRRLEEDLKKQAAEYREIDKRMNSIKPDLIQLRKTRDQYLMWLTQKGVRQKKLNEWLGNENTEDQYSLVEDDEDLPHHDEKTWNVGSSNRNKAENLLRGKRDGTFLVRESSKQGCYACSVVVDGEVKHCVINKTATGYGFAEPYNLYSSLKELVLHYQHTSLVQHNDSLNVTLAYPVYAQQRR

[13] = system: CDC37-nanoKAZ; test: Luminescence activity of CDC37-nanoKAZ in total cell lysates; format: cell-based; settings: counter-test, same concentrations as interaction assay
Protocol: The luminescence activity of the cell lysates was determined using a Centro LB 960 Microplate Luminometer (Berthold Technologies, Bad Wildbad, Germany). A reaction mixture containing bis-coelenterazine (final concentration of 0.1–1 μg/100 μL) in PBS containing 0.02% Tween20 and 20 mM EDTA was injected. The luminescence intensity was recorded at 0.1 s intervals for 10 s or 10 min. The maximum luminescence intensity (Imax), represented in relative luminescence units (rlu), was used in the study.
Targeting the DYRK1A/CDC37 complex
(a-d) Luminescence intensities of total cell lysates of cells treated with the indicated […]
Figure 4. Luminescence intensities at each concentration are shown as fold-changes relative to that at 0 nM. Points are means ± SD (n = 3).
(1 picture or pasted object on this page, not shown here)
Luminescence intensities of total cell lysates of cells treated with the indicated concentrations of CaNDY, as also used in Figure 5c. Luminescence intensities at each concentration are shown as fold-changes to that at 0 nM. Points are means ± SD (n = 3).

[14] = target: CLK1 (Homo sapiens, UniProt P49759); test: Western blot of target kinase expression in HEK293 cells; format: cell-based; parameters: endogenous in cells; host or cells: HEK293; settings: CaNDY 2 μM, 4 days
Protocol: (§1) To check selectivity of CaNDY for other kinases, we first examined protein expression of several kinases in HEK293 cells treated with CaNDY (2 μM) for 4 days. […] Third, protein expression of these kinases targeted by CaNDY (DYRK1A, DYRK1B, CLK1, and Haspin) was reassessed by Western blot analysis as performed in Fig. 7b.
(§2) Western blot analysis was performed using the antibodies described above. In brief, total cell lysates were separated by SDS-PAGE (5–20% gels; ATTO, Tokyo, Japan) under reducing conditions and then transferred to a PVDF membrane (PALL, SP, Brazil). Antibody reactions were performed with Can Get Signal® Immunoreaction Enhancer Solution (Toyobo). Peroxidase activities on the membrane were visualized with ECL Western Blotting Detection Reagents (GE Healthcare) or ImmunoStar® LD (Wako Pure Chemical Industries, Osaka, Japan), and a ChemiDoc^TM MP Imaging System (Bio-Rad, Hercules, CA, USA).

[15] = target: DYRK1B (Homo sapiens, UniProt Q9Y463); test: as above; format: cell-based; parameters: endogenous in cells; host or cells: HEK293; settings: CaNDY 2 μM, 4 days
Sequence of DYRK1B (Q9Y463 whole entry): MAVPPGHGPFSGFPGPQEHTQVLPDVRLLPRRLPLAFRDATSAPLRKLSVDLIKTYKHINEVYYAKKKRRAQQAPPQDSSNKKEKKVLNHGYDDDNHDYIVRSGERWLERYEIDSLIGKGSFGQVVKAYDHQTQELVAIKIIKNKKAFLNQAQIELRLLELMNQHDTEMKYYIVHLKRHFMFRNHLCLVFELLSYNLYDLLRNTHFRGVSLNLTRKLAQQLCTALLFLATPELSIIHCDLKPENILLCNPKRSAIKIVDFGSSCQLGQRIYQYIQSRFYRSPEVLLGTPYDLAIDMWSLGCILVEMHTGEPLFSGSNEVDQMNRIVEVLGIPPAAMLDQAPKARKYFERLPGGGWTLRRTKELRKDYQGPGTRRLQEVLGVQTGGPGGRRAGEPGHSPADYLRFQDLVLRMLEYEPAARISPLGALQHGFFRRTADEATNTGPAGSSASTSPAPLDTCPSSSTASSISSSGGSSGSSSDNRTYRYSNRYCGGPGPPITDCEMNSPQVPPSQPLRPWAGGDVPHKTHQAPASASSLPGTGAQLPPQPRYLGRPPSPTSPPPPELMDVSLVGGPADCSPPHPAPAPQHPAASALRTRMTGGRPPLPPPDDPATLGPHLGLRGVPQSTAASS
Protocol: as §1, §2

[16] = target: T13, Haspin (Homo sapiens, UniProt Q8TF76); test: as above; format: cell-based; parameters: endogenous in cells; host or cells: HEK293; settings: CaNDY 2 μM, 4 days
T13 sequence (Q8TF76 1-798): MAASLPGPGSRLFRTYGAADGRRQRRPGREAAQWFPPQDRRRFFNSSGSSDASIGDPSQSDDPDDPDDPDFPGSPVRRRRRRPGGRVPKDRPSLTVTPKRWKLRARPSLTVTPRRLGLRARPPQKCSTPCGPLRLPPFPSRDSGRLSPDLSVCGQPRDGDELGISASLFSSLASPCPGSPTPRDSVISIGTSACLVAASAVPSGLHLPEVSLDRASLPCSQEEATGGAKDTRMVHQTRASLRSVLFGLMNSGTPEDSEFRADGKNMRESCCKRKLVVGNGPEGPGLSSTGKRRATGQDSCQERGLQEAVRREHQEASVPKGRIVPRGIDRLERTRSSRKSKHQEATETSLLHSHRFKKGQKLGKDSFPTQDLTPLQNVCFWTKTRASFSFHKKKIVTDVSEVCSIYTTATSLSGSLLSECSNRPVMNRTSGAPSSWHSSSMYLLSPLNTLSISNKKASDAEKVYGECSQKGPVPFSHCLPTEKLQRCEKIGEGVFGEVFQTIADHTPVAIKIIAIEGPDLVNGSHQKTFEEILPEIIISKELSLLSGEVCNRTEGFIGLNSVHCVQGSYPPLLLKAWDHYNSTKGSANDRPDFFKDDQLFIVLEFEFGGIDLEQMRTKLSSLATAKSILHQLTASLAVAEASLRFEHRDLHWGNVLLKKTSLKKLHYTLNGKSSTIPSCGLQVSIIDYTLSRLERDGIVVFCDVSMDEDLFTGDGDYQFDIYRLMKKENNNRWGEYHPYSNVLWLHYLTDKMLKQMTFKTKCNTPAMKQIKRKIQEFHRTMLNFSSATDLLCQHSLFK
Protocol: as §1, §2

## [H]/N=C1/NC(=O)C(=Cc2ccc3c(c2)CCO3)S1 [CaNDY, (Z)-5-[(2,3-dihydrobenzofuran-5-yl)methylene]-2-iminothiazolidin-4-one]
[1]
  remaining activity at 1 µM: 106%
[2]
  remaining activity at 1 µM: 102%
[3]
  remaining activity at 1 µM: 101%
[4]
  remaining activity at 1 µM: 101%
[5]
  %Activity: 75.4%
[6]
  %Activity: 100.8%
[7]
  remaining activity at 1 µM: 98.1%
[8]
  remaining activity at 1 µM: 98.6%
[9]
  remaining activity at 1 µM: 98.4%
[10]
  remaining activity at 1 µM: 92.1%
[11]
  %Activity: 94.6%
[12]
  remaining activity at 1 µM: 38.5%
[13]
  inhibition of luminescence activity of CDC37-nanoKAZ: did not inhibit
[14]
  protein expression of CLK1: decreased expression
[15]
  protein expression of DYRK1B: decreased expression
[16]
  protein expression of Haspin: decreased expression
